Laboratory results as given in patent US7442393B2, “Herbal extracts of Salicornia species, process of preparation thereof, use thereof against tuberculosis” (priority 2003, dated 2008).

Tested on: M. tuberculosis H37Rv
Test: In vivo screening of antitubercular activity in infected mice model of experimental tuberculosis
Design: species or system Female swiss mice
Details: 25 mg/kg body weight for 10 days after infection

Compound: C[C@@H]1CN(c2c(F)c(N)c3c(=O)c(C(=O)O)cn(C4CC4)c3c2F)C[C@H](C)N1 [sparfloxicin]
- general health and body weight of infected mice: healthy, gained weight
- mortality of infected mice: none of the mice died
